Results published in ChEMBL document CHEMBL4828709, “Discovery of 2,4-pyrimidinediamine derivatives as potent dual inhibitors of ALK and HDAC” (Eur J Med Chem, 2021).

What was measured:
MDA-MB-231 [1] = assay: Induction of apoptosis in human MDA-MB-231 cells assessed as early apoptotic cells at 1 uM measured after 24 hrs by Annexin V-FITC/PI staining based flowcytometry ( Rvb = […]%); format: functional
SH-SY5Y [2] = assay: Induction of apoptosis in human SH-SY5Y cells assessed as necrotic cells at 1 uM measured after 24 hrs by Annexin V-FITC/PI staining based flowcytometry (reference value: 7.81%); format: functional
SH-SY5Y [3] = assay: Induction of apoptosis in human SH-SY5Y cells assessed as viable cells at 1 uM measured after 24 hrs by Annexin V-FITC/PI staining based flowcytometry (reference value: 77.05%); format: functional; details: read-out: Activity
MDA-MB-231 [4] = assay: Induction of apoptosis in human MDA-MB-231 cells assessed as viable cells at 1 uM measured after 24 hrs by Annexin V-FITC/PI staining based flowcytometry (reference value: 93.14%); format: functional; details: read-out: Activity
HepG2 [5] = assay: cells; format: functional, cell-based; details: Homo sapiens, HepG2, 72 h
Description: Antiproliferative activity against human HepG2 cells assessed as inhibition of cell proliferation measured after 72 hrs by CCK8 assay

SH-SY5Y [6] = assay: Induction of apoptosis in human SH-SY5Y cells assessed as late apoptotic cells at 1 uM measured after 24 hrs by Annexin V-FITC/PI staining based flowcytometry (reference value: 14.32%); format: functional
NCI-H2228 [7] = assay: cells; format: functional, cell-based; details: Homo sapiens, NCI-H2228, 72 h
SH-SY5Y [8] = assay: cells; format: functional, cell-based; details: Homo sapiens, 72 h
Description: Antiproliferative activity against human SH-SY5Y cells harboring ALK F1174L mutant assessed as inhibition of cell proliferation measured after 72 hrs by CCK8 assay

SH-SY5Y [9] = assay: Induction of apoptosis in human SH-SY5Y cells assessed as early apoptotic cells at 1 uM measured after 24 hrs by Annexin V-FITC/PI staining based flowcytometry (reference value: 0.82%); format: functional
MDA-MB-231 [10] = assay: Induction of apoptosis in human MDA-MB-231 cells assessed as necrotic cells at 1 uM measured after 24 hrs by Annexin V-FITC/PI staining based flowcytometry (reference value: 0.94%); format: functional
cells = format: functional, cell-based; details: Homo sapiens, SKNBE2, 72 h
Description: Antiproliferative activity against human SKNBE2 cells harboring wild type ALK assessed as inhibition of cell proliferation measured after 72 hrs by CCK8 assay

MDA-MB-231 [11] = assay: cells; format: functional, cell-based; details: Homo sapiens, MDA-MB-231, 72 h
Description: Antiproliferative activity against human MDA-MB-231 cells assessed as inhibition of cell proliferation measured after 72 hrs by CCK8 assay

MDA-MB-231 [12] = assay: Induction of apoptosis in human MDA-MB-231 cells assessed as late apoptotic cells at 1 uM measured after 24 hrs by Annexin V-FITC/PI staining based flowcytometry ( Rvb = 5.28%); format: functional
[13] = molecular target: T1, ALK tyrosine kinase receptor (Homo sapiens, UniProt Q9UM73); assay: Inhibition of ALK (unknown origin) at 100 nM preincubated for 10 mins followed by addition of substrate and ATP for 25 mins by caliper EZ reader method; details: time 35.0 min
Target sequence in this assay (Q9UM73 19-1620 limits assumed): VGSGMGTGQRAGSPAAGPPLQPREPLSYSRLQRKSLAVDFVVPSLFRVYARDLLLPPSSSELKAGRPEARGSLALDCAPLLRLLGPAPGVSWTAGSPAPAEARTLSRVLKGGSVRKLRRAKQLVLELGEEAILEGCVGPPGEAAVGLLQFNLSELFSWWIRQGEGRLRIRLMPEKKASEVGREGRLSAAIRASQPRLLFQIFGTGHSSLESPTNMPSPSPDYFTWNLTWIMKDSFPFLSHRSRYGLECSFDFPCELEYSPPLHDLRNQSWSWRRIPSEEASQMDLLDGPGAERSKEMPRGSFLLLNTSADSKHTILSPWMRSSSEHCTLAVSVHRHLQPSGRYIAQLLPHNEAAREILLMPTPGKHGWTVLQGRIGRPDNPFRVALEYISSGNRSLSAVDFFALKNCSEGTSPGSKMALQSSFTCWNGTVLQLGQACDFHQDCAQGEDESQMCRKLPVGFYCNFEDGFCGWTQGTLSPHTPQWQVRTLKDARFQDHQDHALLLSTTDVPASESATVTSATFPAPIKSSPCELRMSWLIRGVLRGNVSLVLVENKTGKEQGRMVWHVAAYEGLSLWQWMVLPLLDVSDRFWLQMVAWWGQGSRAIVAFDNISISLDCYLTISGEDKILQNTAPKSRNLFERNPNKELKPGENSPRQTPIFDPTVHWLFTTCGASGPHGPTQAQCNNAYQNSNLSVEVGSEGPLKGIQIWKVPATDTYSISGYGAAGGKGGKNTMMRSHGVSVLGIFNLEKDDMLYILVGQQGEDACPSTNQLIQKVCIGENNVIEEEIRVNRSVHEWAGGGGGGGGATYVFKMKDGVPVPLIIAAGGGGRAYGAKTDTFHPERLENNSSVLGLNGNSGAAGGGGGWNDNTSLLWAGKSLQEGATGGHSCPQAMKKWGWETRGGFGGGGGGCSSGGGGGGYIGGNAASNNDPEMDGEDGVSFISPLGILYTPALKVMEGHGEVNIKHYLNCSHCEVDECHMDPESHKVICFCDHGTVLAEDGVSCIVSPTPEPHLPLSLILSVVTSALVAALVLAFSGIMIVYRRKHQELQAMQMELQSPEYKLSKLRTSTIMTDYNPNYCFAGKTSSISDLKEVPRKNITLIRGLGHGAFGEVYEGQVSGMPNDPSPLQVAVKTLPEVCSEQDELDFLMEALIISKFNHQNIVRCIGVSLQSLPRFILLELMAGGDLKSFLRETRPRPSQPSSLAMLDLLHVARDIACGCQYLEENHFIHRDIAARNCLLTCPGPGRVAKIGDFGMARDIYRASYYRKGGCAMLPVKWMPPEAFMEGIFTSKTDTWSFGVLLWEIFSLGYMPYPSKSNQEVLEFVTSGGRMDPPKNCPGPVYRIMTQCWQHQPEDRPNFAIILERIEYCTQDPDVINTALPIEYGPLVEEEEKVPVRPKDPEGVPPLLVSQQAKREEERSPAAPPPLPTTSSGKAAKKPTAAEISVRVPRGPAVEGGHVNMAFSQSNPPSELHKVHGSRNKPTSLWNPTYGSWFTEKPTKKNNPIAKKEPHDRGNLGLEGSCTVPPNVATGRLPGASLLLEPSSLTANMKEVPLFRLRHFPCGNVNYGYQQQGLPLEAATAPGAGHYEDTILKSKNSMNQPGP

[14] = Potency index, ratio of crizotinib IC50 to test compound IC50 for human SKNBE2 cells harboring wild type ALK assessed as inhibition of cell proliferation measured after 72 hrs by CCK8 assay; format: functional
[15] = molecular target: T1, ALK tyrosine kinase receptor; assay: Inhibition of ALK (unknown origin) at 10 nM preincubated for 10 mins followed by addition of substrate and ATP for 25 mins by caliper EZ reader method; details: time 35.0 min
Target sequence in this assay (Q9UM73 19-1620 limits assumed): as above

A549 [16] = assay: Potency index, ratio of ceritinib IC50 to test compound IC50 for human A549 cells assessed as inhibition of cell proliferation measured after 72 hrs by CCK8 assay; format: functional
A549 [17] = assay: cells; format: functional, cell-based; details: Homo sapiens, A549, 72 h
Description: Antiproliferative activity against human A549 cells assessed as inhibition of cell proliferation measured after 72 hrs by CCK8 assay

HepG2 [18] = assay: Potency index, ratio of ceritinib IC50 to test compound IC50 for human HepG2 cells assessed as inhibition of cell proliferation measured after 72 hrs by CCK8 assay; format: functional
Histone deacetylase 1 [19] = molecular target: T2, Histone deacetylase 1 (Homo sapiens, UniProt Q13547); assay: biochemical
T2 sequence (Q13547 whole entry): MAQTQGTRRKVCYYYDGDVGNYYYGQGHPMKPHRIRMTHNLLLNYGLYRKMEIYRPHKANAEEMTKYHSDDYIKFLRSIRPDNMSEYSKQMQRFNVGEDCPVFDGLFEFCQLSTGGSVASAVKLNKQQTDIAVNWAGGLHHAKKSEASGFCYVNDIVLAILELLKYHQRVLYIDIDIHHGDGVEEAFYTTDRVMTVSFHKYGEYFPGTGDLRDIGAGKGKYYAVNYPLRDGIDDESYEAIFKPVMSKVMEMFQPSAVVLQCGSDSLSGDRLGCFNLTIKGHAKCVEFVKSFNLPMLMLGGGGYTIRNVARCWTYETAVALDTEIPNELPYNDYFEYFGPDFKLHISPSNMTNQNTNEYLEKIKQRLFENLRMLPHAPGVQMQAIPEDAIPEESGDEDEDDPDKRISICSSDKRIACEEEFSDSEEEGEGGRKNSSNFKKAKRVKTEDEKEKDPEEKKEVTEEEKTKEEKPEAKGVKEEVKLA
Description: Inhibition of recombinant human C-terminal His/FLAG-tagged HDAC1 (1 to 482 residues) expressed in Sf9 insect cells using Ac-peptide-AMC as substrate preincubated for 15 mins followed by addition of substrate and trypsin measured by flourescence assay

A549 [20] = assay: Potency index, ratio of crizotinib IC50 to test compound IC50 for human A549 cells assessed as inhibition of cell proliferation measured after 72 hrs by CCK8 assay; format: functional
[21] = molecular target: T1, ALK tyrosine kinase receptor
Target sequence in this assay (Q9UM73 whole entry): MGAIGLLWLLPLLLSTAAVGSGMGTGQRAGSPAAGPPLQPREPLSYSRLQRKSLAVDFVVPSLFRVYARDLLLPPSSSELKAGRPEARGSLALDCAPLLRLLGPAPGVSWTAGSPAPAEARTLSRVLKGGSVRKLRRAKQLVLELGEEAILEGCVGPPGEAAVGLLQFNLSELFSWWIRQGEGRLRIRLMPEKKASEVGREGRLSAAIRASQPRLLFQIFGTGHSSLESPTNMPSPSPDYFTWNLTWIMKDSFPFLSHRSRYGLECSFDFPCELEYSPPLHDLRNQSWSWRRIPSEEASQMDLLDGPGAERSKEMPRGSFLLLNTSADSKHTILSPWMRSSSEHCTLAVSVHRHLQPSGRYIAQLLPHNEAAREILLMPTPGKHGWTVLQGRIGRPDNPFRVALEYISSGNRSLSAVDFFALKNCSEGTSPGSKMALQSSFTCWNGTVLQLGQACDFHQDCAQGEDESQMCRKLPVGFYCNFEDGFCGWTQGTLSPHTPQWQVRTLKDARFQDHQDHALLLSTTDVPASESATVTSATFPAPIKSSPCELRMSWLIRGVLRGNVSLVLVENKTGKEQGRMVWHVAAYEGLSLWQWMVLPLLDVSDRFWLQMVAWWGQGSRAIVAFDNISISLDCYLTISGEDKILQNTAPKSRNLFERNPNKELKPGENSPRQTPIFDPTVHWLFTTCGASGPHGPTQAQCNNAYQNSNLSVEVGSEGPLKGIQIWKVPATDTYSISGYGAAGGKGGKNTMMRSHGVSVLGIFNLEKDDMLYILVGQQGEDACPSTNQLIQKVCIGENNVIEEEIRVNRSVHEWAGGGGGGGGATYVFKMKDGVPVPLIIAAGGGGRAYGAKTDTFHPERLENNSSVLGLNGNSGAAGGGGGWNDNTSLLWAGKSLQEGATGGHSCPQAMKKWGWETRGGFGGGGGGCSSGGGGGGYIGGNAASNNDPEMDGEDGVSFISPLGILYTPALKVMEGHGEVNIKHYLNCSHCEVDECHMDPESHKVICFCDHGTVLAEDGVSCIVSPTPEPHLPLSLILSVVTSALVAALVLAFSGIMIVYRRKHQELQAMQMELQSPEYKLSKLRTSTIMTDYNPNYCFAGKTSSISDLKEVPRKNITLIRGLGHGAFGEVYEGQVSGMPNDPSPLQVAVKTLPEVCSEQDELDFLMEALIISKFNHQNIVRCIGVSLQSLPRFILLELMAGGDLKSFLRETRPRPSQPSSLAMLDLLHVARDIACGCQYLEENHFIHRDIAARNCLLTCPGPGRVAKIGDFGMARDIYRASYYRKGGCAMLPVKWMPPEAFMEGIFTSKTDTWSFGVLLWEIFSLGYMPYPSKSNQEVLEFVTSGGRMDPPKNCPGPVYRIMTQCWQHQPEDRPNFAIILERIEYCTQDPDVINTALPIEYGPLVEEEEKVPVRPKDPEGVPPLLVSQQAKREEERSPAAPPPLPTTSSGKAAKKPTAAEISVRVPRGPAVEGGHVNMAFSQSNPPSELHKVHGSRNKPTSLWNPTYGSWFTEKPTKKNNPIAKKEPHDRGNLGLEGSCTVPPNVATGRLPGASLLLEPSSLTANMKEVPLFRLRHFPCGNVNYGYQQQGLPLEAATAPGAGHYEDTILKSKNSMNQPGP
Description: Inhibition of ALK (unknown origin) preincubated for 10 mins followed by addition of substrate and ATP for 25 mins by caliper EZ reader method

Histone deacetylase 2 = Histone deacetylase 2 (Homo sapiens, UniProt Q92769)
Histone deacetylase 2, sequence (Q92769 whole entry): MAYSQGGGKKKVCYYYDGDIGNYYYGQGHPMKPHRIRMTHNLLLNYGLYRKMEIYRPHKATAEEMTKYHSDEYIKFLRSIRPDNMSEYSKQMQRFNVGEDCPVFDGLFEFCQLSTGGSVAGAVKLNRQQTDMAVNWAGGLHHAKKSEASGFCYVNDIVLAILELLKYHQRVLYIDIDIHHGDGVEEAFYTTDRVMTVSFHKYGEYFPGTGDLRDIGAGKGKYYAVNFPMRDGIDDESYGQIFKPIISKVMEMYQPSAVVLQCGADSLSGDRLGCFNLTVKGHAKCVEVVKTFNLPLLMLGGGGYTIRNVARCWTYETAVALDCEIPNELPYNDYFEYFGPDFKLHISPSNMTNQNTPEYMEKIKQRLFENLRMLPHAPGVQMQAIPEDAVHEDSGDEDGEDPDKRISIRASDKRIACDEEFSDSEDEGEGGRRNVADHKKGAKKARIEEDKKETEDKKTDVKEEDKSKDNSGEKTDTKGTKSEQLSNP
Description: Inhibition of HDAC2 (unknown origin)

MDA-MB-231 [22] = assay: Potency index, ratio of crizotinib IC50 to test compound IC50 for human MDA-MB-231 cells assessed as inhibition of cell proliferation measured after 72 hrs by CCK8 assay; format: functional
Histone deacetylase 1 [23] = molecular target: T2, Histone deacetylase 1; details: Sf9, dose 100.0 nM, time 15.0 min
[24] = molecular target: ALK tyrosine kinase receptor (Homo sapiens, UniProt Q9UM73, G1202R)
ALK tyrosine kinase receptor (Homo sapiens, UniProt Q9UM73, G1202R), sequence (Q9UM73 19-1620 G1202R limits assumed): as the sequence (Q9UM73 19-1620 limits assumed) above, with G1184R counted along it

NCI-H2228 [25] = assay: Potency index, ratio of ceritinib IC50 to test compound IC50 for human NCI-H2228 cells harboring EML4/ALK […] assessed as inhibition of cell proliferation measured after 72 hrs by CCK8 assay; format: functional
SH-SY5Y [26] = assay: Potency index, ratio of crizotinib IC50 to test compound IC50 for human SH-SY5Y cells harboring ALK F1174L mutant assessed as inhibition of cell proliferation measured after 72 hrs by CCK8 assay; format: functional
SH-SY5Y [27] = assay: Potency index, ratio of ceritinib IC50 to test compound IC50 for human SH-SY5Y cells harboring ALK F1174L mutant assessed as inhibition of cell proliferation measured after 72 hrs by CCK8 assay; format: functional
[28] = molecular target: T3, Protein deacetylase HDAC6 (Homo sapiens, UniProt Q9UBN7)
T3 sequence (Q9UBN7 whole entry): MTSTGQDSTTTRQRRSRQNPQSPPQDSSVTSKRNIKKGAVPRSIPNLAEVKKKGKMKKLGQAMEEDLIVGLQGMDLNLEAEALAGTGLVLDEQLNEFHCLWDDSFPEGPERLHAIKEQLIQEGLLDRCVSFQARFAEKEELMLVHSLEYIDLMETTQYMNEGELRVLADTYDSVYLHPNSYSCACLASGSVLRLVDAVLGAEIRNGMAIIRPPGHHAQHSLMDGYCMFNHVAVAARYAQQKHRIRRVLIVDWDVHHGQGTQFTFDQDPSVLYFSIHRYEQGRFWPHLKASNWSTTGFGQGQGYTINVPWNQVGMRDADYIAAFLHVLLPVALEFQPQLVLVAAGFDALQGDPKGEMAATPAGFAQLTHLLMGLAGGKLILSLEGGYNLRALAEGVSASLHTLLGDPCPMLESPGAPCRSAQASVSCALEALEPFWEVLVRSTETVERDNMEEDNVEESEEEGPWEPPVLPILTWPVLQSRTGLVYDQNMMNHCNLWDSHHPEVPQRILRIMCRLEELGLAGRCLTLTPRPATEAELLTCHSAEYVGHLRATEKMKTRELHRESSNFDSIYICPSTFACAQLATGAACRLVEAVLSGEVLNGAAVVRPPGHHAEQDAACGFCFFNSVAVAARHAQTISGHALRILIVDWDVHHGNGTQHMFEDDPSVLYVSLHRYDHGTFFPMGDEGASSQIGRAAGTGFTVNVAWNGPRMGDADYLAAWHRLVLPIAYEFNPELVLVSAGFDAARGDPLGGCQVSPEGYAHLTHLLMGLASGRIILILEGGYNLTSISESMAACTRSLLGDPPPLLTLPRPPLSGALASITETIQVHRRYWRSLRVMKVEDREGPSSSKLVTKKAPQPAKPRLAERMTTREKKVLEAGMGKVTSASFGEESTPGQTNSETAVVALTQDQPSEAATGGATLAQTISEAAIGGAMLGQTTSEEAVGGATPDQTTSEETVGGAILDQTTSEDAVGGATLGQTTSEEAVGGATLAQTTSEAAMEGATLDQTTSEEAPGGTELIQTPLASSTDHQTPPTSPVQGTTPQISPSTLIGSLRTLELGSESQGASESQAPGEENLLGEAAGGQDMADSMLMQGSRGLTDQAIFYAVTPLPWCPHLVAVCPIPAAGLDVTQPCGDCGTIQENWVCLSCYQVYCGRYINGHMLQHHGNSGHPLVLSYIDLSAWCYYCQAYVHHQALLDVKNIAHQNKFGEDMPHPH
Description: Inhibition of HDAC6 (unknown origin)

[29] = Potency index, ratio of ceritinib IC50 to test compound IC50 for human SKNBE2 cells harboring wild type ALK assessed as inhibition of cell proliferation measured after 72 hrs by CCK8 assay; format: functional
[30] = molecular target: ALK tyrosine kinase receptor (Homo sapiens, UniProt Q9UM73, L1196M)
ALK tyrosine kinase receptor (Homo sapiens, UniProt Q9UM73, L1196M), sequence (Q9UM73 19-1620 L1196M limits assumed): as the sequence (Q9UM73 19-1620 limits assumed) above, with L1178M counted along it

MDA-MB-231 [31] = assay: Potency index, ratio of ceritinib IC50 to test compound IC50 for human MDA-MB-231 cells assessed as inhibition of cell proliferation measured after 72 hrs by CCK8 assay; format: functional
Histone deacetylase 1 [32] = molecular target: T2, Histone deacetylase 1; details: Sf9, dose 10.0 nM, time 15.0 min
HepG2 [33] = assay: Potency index, ratio of crizotinib IC50 to test compound IC50 for human HepG2 cells assessed as inhibition of cell proliferation measured after 72 hrs by CCK8 assay; format: functional
NCI-H2228 [34] = assay: Potency index, ratio of crizotinib IC50 to test compound IC50 for human NCI-H2228 cells harboring EML4/ALK […] assessed as inhibition of cell proliferation measured after 72 hrs by CCK8 assay; format: functional

Cc1cc(Nc2ncc(Cl)c(Nc3ccccc3S(=O)(=O)C(C)C)n2)c(OC(C)C)cc1C1CCNCC1 [CERITINIB]
Activity (MDA-MB-231 [1]): 1.17%
Activity (SH-SY5Y [2]): 11.77%
viability at 1 µM (SH-SY5Y [3]): 81.9%
viability at 1 µM (MDA-MB-231 [4]): 90.2%
IC50 (HepG2 [5]): 4.08 µM
Activity (SH-SY5Y [6]): 20.4%
IC50 (NCI-H2228 [7]): 1.98 µM
IC50 (SH-SY5Y [8]): 0.37 µM
Activity (SH-SY5Y [9]): 2.07%
Activity (MDA-MB-231 [10]): 1.55%
IC50 (cells): 2.66 µM
IC50 (MDA-MB-231 [11]): 1.82 µM
Activity (MDA-MB-231 [12]): 7.07%

CC(C)S(=O)(=O)c1ccccc1Nc1nc(Nc2ccc(C(=O)NCCCCCCC(=O)NO)cc2)ncc1Cl
inhibition [13]: 103%
Ratio IC50 [14]: 3
inhibition [15]: 84.5%
Ratio IC50 (A549 [16]): 3
IC50 (A549 [17]): 3.42 µM
Ratio IC50 (HepG2 [18]): 3
IC50 (Histone deacetylase 1 [19]): 0.012 µM
Ratio IC50 (A549 [20]): 3
IC50 [21]: 0.0043 µM
IC50 (Histone deacetylase 2): 0.015 µM
Ratio IC50 (MDA-MB-231 [22]): 3
inhibition (Histone deacetylase 1 [23]): 100%
IC50 (HepG2 [5]): 0.91 µM
IC50 [24]: 0.001 µM
Ratio IC50 (NCI-H2228 [25]): 3
Ratio IC50 (SH-SY5Y [26]): 3
IC50 (NCI-H2228 [7]): 0.18 µM
Ratio IC50 (SH-SY5Y [27]): 3
IC50 (SH-SY5Y [8]): 0.34 µM
IC50 [28]: 0.0067 µM
Ratio IC50 [29]: 3
IC50 [30]: 0.0024 µM
Ratio IC50 (MDA-MB-231 [31]): 3
IC50 (cells): 0.22 µM
inhibition (Histone deacetylase 1 [32]): 49%
Ratio IC50 (HepG2 [33]): 3
Ratio IC50 (NCI-H2228 [34]): 3
IC50 (MDA-MB-231 [11]): 0.39 µM
